Measured values reported in patent US20090247527A1, “SUBSTITUTED GAMMA LACTAMS AS THERAPEUTIC AGENTS” (ALLERGAN, INC., priority 2008, published 2009).
“Also recorded” adds a separate entry of the source.

System: lashes and adjacent hairs of patients having glaucoma
Assay: Observation of lashes and adjacent hairs in glaucoma patients treated with bimatoprost in one eye
Type: in vivo, human
Conditions: glaucoma patients treated unilaterally; gross inspection and slit lamp biomicroscope
Excerpt: In the course of treating patients having glaucoma, treatment may only be appropriate in one eye. […] The lash appearance on the lids of the treated eyes would have appeared quite attractive if it represented a bilateral phenomenon. As a result of its asymmetric nature, the long lashes on one side could be construed as disturbing from a cosmetic standpoint. A systemic examination was preformed as a result of the asymmetric phenomenon. It soon became apparent that this altered appearance was not an isolated finding. […] Definite differences could be identified to varying degrees in the lashes and adjacent hairs of all patients who were taking the drug on a unilateral basis for longer than 6 months.
The changes in the lashes were apparent on gross inspection in several patients once attention was focused on the issue. In those with light colored hair and lashes, the differences were only seen easily with the aid of the high magnification and lighting capabilities of the slit lamp biomicroscope. In the course of glaucoma follow-up examination, attention is generally immediately focused on the eye itself. As a result of the high power magnification needed only one eye is seen at a time and the eye is seen at a high enough power that the lashes are not in focus. […]

## CCNC(=O)CCC/C=C\C[C@@H]1[C@@H](/C=C/[C@@H](O)CCc2ccccc2)[C@H](O)C[C@@H]1O [bimatoprost]
  lash / hair growth in treated eye versus non-treated eye: longer, thicker, and fuller in the treated eye than in the non-treated eye; also recorded: hair growth is stimulated
